Several values for one entry are separate records, joined by “and”; a condition that tells them apart may be missing. Identical values can stand only once.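 Test compounds were applied to cells in 96-well plates for 48 hours at 5 doses. GI50 = concentration required for 50% inhibition of growth. TGI denotes the concentration required for complete inhibition of growth.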
Columns and labels:
Test in all cases: DTP human tumour cell line panel, 48 h
[1] = tested on: NCI-H522 lung
[2] = tested on: UO-31 renal
[3] = tested on: UACC-257 melanoma
[4] = tested on: COLO 205 colon
[5] = tested on: OVCAR-5 ovarian
[6] = tested on: SR leukemia
[7] = tested on: SF-539 CNS
[8] = tested on: HCT-116 colon
[9] = tested on: MDA-MB-435
[10] = tested on: BT-549 breast

Compound	TGI [1]	TGI [2]	TGI [3]	TGI [4]	TGI [5]	TGI [6]	TGI [7]	TGI [8]	GI50 [4]	TGI [9]	GI50 [1]	GI50 [2]	GI50 [3]	GI50 [5]	GI50 [6]	GI50 [8]	TGI [10]
CC(/C=C/C(=O)c1sc(C(N)=S)nc1C)=C\c1ccccc1	> 100 µM	> 100 µM	> 100 µM	> 100 µM	> 100 µM	98 µM	> 100 µM	–	–	–	–	–	–	–	–	–	–
O=C1C(Cl)=C(Cl)C(=O)N1c1ccc(Cl)c(Cl)c1Cl	28.8 µM	> 100 µM	> 100 µM	> 100 µM	> 100 µM	68 µM	> 100 µM	> 100 µM	–	–	–	–	–	–	–	–	–
COC(=O)/C(C#N)=C1\CCC(OC)N1C (stereo not given)	> 100 µM	> 100 µM	> 100 µM	> 100 µM	> 100 µM	–	> 100 µM	> 100 µM	–	–	–	–	–	–	–	–	–
Cc1ccc(SSCC(O)C(O)CSSc2ccc(C)cc2)cc1 (stereo not given)	3.38 µM and 3.68 µM	17.6 µM and 15.3 µM	30.5 µM and 28.1 µM	3.75 µM and 27.3 µM	30.2 µM and 38.4 µM	15.7 µM and 23.7 µM	8.17 µM and 14.3 µM	20.1 µM and 24.5 µM	1.99 µM and 14.2 µM	–	–	–	–	–	–	–	–
COC(=O)c1onc(C2OC(C)(C)OC2C(O)COC(c2ccccc2)(c2ccccc2)c2ccccc2)c1C(=O)OC (stereo not given)	> 100 µM	> 100 µM	–	> 100 µM	> 100 µM	> 100 µM	> 100 µM	> 100 µM	–	> 100 µM	–	–	–	–	–	–	–
Cc1ccc2oc(=O)c3c(O)c4cccc(OC5OC(C)C6O[C@@H](c7ccccc7)OC6C5OC5OC(C)C(O)C(O)C5O)c4c4oc(=O)c1c2c34 (stereo not given in full)	0.294 µM and 1.38 µM	1.99 µM and 7.47 µM	1.82 µM and 2.12 µM	–	1.13 µM and 2.7 µM	< 0.0472 µM	1.34 µM and 1.39 µM	–	0.0807 µM	1.9 µM	0.104 µM	0.4 µM	0.309 µM	0.218 µM	0.0174 µM	0.0257 µM	–
CC(C)=Cc1cc(CCC/C(C)=C/Cc2c(O)cc(C)c(C(=O)O)c2O)co1	> 100 µM	> 100 µM	> 100 µM	> 100 µM	> 100 µM	–	> 100 µM	> 100 µM	–	> 100 µM	–	–	–	–	–	–	> 100 µM
COc1cc2c(cc1OC)C(C(CBr)CBr)N(C1CCCC1)CC2 (stereo not given)	> 100 µM	> 100 µM	> 100 µM	> 100 µM	> 100 µM	> 100 µM	> 100 µM	–	–	–	–	–	–	–	–	–	–
CCCCCCC(=O)C/C(CCC(=O)N(Cc1ccccc1)Cc1ccccc1)=N\NC(N)=O	> 100 µM	> 100 µM	> 100 µM	> 100 µM	> 100 µM	> 100 µM	> 100 µM	> 100 µM	–	–	–	–	–	–	–	–	–
Cc1ccc(N2C(=O)/C(=C/c3ccc(N(CCC#N)CCC#N)cc3)N=C2COc2ccc(Cl)cc2Cl)cc1	> 100 µM	> 100 µM	> 100 µM	> 100 µM	> 100 µM	> 100 µM	> 100 µM	> 100 µM	–	–	–	–	–	–	–	–	–
O=c1c2ccccc2oc2ccccc12 (tested in a mixture with another compound)	> 100 µM	> 100 µM	9.31 µM	> 100 µM	–	> 100 µM	> 100 µM	> 100 µM	–	–	–	–	–	–	–	–	–
CN1CCN=C1c1nnn(-c2ccc([N+](=O)[O-])cc2)c1-c1ccccc1	> 100 µM	> 100 µM	> 100 µM	> 100 µM	> 100 µM	> 100 µM	> 100 µM	> 100 µM	–	–	–	–	–	–	–	–	–
C=CCC12CC(=O)CCC1c1ccc(OC)cc1C2=O (stereo not given)	> 100 µM	> 100 µM	> 100 µM	> 100 µM	> 100 µM	> 100 µM	> 100 µM	> 100 µM	–	–	–	–	–	–	–	–	–
Cc1ccccc1-n1c(=S)[nH]c2c(sc(=O)n2-c2ccccc2C)c1=O	> 100 µM	> 100 µM	> 100 µM	> 100 µM	> 100 µM	> 100 µM	> 100 µM	> 100 µM	–	–	–	–	–	–	–	–	–
O=c1cc[nH]cc1-c1c[nH]ccc1=O	> 100 µM	> 100 µM	> 100 µM	> 100 µM	–	–	> 100 µM	> 100 µM	–	–	–	–	–	–	–	–	–
CCC1CCCCN1CC(C(C)=O)C(c1ccccc1)c1c(O)c2ccccc2oc1=O (stereo not given)	> 100 µM	> 100 µM	> 100 µM	> 100 µM	> 100 µM	> 100 µM	> 100 µM	> 100 µM	–	–	–	–	–	–	–	–	–
CS(=O)(=O)c1ccc(COP(N)(=O)N(CCCl)CCCl)cc1 (stereo not given)	> 100 µM	> 100 µM	> 100 µM	> 100 µM	> 100 µM	> 100 µM	> 100 µM	> 100 µM	–	–	–	–	–	–	–	–	–
COc1ccc(Br)c(CN2CCc3ccccc32)c1OS(=O)(=O)c1ccc(C)cc1	30.8 µM	> 100 µM	> 100 µM	33.8 µM	> 100 µM	> 100 µM	57.8 µM	–	–	–	–	–	–	–	–	–	–
